Data: patent publication US9550749B2, “Endoparasite control agent and method for using the same” (The University of Tokyo, priority 2012, dated 2017)

What was measured:
[1] = test system: Haemonchus contortus L1-stage larvae; test: In vivo activity test on Haemonchus nematode (motor ability of L1-stage larvae in 96-well plate); conditions: 27° C./95% RH, 4 days
Protocol: In Vivo Activity Test on Haemonchus Nematode In a 96-well plate, twenty L1-stage larvae (Haemonchus contortus) per well were maintained so that they could freely move, and solutions of compounds of the present invention dissolved at predetermined concentrations in DMSO (the final concentration of DMSO was 0.78% (v/v)) were added at 0.5 Ill/well each. The plate was kept under the conditions of 27° C./95% RH for 4 days. The motor ability of the larvae was examined and the concentration required for 50% inhibition of the motor ability (EC50) was determined. Based on the EC50 value, the activity against the Haemonchus nematode was graded according to the criterion shown below. Grading Criterion A: The EC50 value is lower than 0.5 ppm. B: The EC50 value is 0.5 ppm or higher but lower than 5 ppm. C: The EC50 value is 5 ppm or higher.

[2] = molecular target: T1, Ascaris suum succinate-ubiquinone reductase (mitochondrial complex II) (Ascaris suum, UniProt O44074+P92506+P92507); test: In vitro measurement of inhibitory activity on Ascaris suum succinate-ubiquinone reductase (mitochondrial complex II); assay type: biochemical; conditions: mitochondria from adult Ascaris suum muscle, UQ2 60 μM, succinate 10 mM, 25° C.
T1 construct: from tissue; host or cells: mitochondria from adult Ascaris suum muscle
Protocol: In Vitro Measurement of Inhibitory Activity on Ascaris suum Succinate-Ubiquinone Reductase (Mitochondrial Complex II)
To a solution containing 50 mM potassium phosphate (pH 7.4) and 0.1% (w/v) sucrose monolaurate, an electron acceptor ubiquinone-2 (UQ2) was added at a final concentration of 60 μM, and the mixture was allowed to stand at 25° C. for 20 minutes. To this, potassium cyanide (final concentration: 2 mM) and mitochondria prepared from adult Ascaris suum muscle were added, and thorough mixing was done. To aliquots of the mixture, an inhibitor to be tested was added at various concentrations, and the mixtures were allowed to stand at 25° C. for 3 minutes. The enzymatic reaction was initiated by addition of potassium succinate (final concentration: 10 mM). The enzymatic activity was calculated based on the measurement of change in the absorbance at 278 nm of UQ2 (e=1.5×10^4 M^−1 cm^−1), and IC50 was determined from the plot of the inhibition percentage against the inhibitor concentration.

T1 sequence (O44074 22-282): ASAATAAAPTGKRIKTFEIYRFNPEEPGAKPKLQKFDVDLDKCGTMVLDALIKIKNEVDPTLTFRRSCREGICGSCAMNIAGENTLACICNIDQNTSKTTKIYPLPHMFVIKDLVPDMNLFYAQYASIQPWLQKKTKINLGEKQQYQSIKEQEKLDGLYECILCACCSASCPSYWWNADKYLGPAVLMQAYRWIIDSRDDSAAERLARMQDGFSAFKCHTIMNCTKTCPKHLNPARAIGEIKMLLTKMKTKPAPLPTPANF
T1 sequence (P92506 32-188): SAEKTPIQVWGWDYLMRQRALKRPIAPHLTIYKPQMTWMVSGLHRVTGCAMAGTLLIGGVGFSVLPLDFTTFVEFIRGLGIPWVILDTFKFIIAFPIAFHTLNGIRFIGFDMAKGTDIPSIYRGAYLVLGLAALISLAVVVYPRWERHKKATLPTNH
T1 sequence (P92507 26-156): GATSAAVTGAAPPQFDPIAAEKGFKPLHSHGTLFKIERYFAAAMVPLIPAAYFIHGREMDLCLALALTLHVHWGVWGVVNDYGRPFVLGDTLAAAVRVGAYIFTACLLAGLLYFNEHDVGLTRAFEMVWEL
T1 sequence (Q33862 19-645 partner): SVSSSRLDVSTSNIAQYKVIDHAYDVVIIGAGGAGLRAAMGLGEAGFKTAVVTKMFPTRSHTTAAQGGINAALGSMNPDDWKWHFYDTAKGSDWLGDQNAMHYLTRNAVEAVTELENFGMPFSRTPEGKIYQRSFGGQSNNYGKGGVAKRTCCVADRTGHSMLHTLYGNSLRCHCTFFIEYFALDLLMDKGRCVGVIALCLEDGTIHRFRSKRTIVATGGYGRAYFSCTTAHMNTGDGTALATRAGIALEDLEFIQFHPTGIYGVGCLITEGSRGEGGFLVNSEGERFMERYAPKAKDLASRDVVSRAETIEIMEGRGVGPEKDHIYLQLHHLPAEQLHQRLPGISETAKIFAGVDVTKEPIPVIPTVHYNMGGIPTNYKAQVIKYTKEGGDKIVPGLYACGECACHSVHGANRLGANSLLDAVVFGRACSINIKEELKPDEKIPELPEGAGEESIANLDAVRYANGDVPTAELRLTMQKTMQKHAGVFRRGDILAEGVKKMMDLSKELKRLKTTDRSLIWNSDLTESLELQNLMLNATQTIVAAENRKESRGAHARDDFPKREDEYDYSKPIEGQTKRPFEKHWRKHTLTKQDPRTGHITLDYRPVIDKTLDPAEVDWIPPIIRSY

SMILES | IC50 [2] | Grade (EC50, concentration required for 50% inhibition of the motor ability of larvae) [1]
C[C@@H](Cn1nc(Cl)cc1C(F)(F)F)NC(=O)c1ccccc1C(F)(F)F [Compound 1] | 5.2 nM | A (The EC50 value is lower than 0.5 ppm.)
C[C@@H](Cn1nc(C(F)(F)F)cc1Cl)NC(=O)c1ccccc1C(F)(F)F [Compound 2] | – | A (The EC50 value is lower than 0.5 ppm.)
C[C@@H](Cn1nc(C(F)(F)F)cc1Br)NC(=O)c1ccccc1C(F)(F)F [Compound 5] | 5.8 nM | A (The EC50 value is lower than 0.5 ppm.)
Cc1ccccc1C(=O)N[C@@H](C)Cn1nc(Cl)cc1C(F)(F)F [Compound 10] | – | B (The EC50 value is 0.5 ppm or higher but lower than 5 ppm.)
CSc1cc(C(F)(F)F)n(C[C@H](C)NC(=O)c2ccccc2C(F)(F)F)n1 [Compound 18] | 3.1 nM | –
O=C(NCCNc1ncc(C(F)(F)F)cc1Cl)c1ccccc1C(F)(F)F [Compound 24] | 11 nM | A (The EC50 value is lower than 0.5 ppm.)
C[S+]([O-])c1ccc(CCNC(=O)c2ccccc2C(F)(F)F)c(Cl)c1 (centres unmarked) [Compound 27] | 260 nM | B (The EC50 value is 0.5 ppm or higher but lower than 5 ppm.)
O=C(NCCc1ccc(Cl)cc1Cl)c1ccccc1SC(F)F [Compound 31] | 8.2 nM | –
O=C(NCCc1ccc(Cl)cc1Cl)c1ccccc1OC(F)(F)F [Compound 32] | 48 nM | A (The EC50 value is lower than 0.5 ppm.)
O=C(NCCc1ncc(C(F)(F)F)cc1Cl)c1c(F)cccc1F [Compound 39] | 5.3 nM | –
O=C(NCCc1ncc(C(F)(F)F)cc1Cl)c1c(Cl)cccc1Cl [Compound 40] | 39 nM | –

Continued by falling IC50 [2], values first:

IC50 [2] | SMILES | Grade (EC50, concentration required for 50% inhibition of the motor ability of larvae) [1]
2.6 nM | Cc1ccccc1C(=O)NCCc1ncc(C(F)(F)F)cc1Cl [Compound 37] | –
2.3 nM | O=C(NCCc1ncc(C(F)(F)F)cc1Cl)c1ccccc1Br [Compound 35] | –
2.1 nM | O=C(NCCc1ncc(C(F)(F)F)cc1Cl)c1ccccc1Cl [Compound 34] | –
2 nM | Cc1ccccc1C(=O)N[C@@H](C)Cn1nc(Cl)c(Br)c1C(F)(F)F [Compound 6] | –
1.9 nM | C[C@@H](Cn1nc(C(F)(F)F)c(Cl)c1Cl)NC(=O)c1ccccc1C(F)(F)F [Compound 4] | A (The EC50 value is lower than 0.5 ppm.)
1.8 nM | C[C@@H](Cn1nc(Br)c(Br)c1Br)NC(=O)c1ccccc1C(F)(F)F [Compound 14] | –
1.8 nM | C[C@@H](COc1ncc(C(F)(F)F)cc1Cl)NC(=O)c1ccccc1C(F)(F)F [Compound 23] | A (The EC50 value is lower than 0.5 ppm.)
1.7 nM | C[C@@H](Cn1nc(Cl)c(Br)c1C(F)(F)F)NC(=O)c1ccccc1C(F)(F)F [Compound 7] | A (The EC50 value is lower than 0.5 ppm.)
1.4 nM | C[C@@H](Cn1nc(Cl)c(Br)c1Cl)NC(=O)c1ccccc1C(F)(F)F [Compound 3] | A (The EC50 value is lower than 0.5 ppm.)
1.4 nM | O=C(NCCc1ccc(Oc2ncc(C(F)(F)F)cc2Cl)cc1Cl)c1ccccc1C(F)(F)F [Compound 26] | A (The EC50 value is lower than 0.5 ppm.)
1.2 nM | CSc1ccccc1C(=O)NCCc1ccc(Cl)cc1Cl [Compound 28] | A (The EC50 value is lower than 0.5 ppm.)
1.2 nM | O=C(NCCc1ncc(C(F)(F)F)cc1Cl)c1ccccc1I [Compound 36] | A (The EC50 value is lower than 0.5 ppm.)
